Results: patent US10981926B2 (Janssen Pharmaceutica NV, priority 2016, dated 2021)

What was measured:
[1] = target: T1, wild-type Androgen Receptor (AR-wt) (Homo sapiens (Human), UniProt P10275); test: LNCaP-AR-wt ANT reporter assay (antagonist mode); type: cell-based; details: for IC50: antagonist mode, pIC50 = −Log10(IC50 in Molar), read-out: LNCaP-AR-wt ANT pIC50 (converted); for Emax: maximum % inhibition of R1881 control response over the tested concentration range, read-out: LNCaP-AR-wt ANT MAX % Inh
[2] = tested on: rGABA-gated Cl− channel; test: GABA-Gated Cl Channel Antagonist Radioligand Binding Assay; design: species or system rat; details: 10 μM single point, [35S]-TBPS, cerebral cortex membrane homogenates
Procedure, shortened: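 Rat cerebral cortex membranes (120 μg protein) incubated 120 min at 22° C with 3 nM […] in 50 mM Na2HPO4/KH2PO4 pH 7.4, 500 mM NaCl; nonspecific binding defined with 20 μM picrotoxinin. Bound label counted after filtration; values are percent inhibition of specific binding at 10 μM compound.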

[3] = target: T2, F876L mutant Androgen Receptor (AR-F876L) (Homo sapiens (Human), UniProt P10275, F877L); test: LNCaP-AR-F876L ANT reporter assay (antagonist mode); type: cell-based; details: for IC50: antagonist mode, pIC50 = −Log10(IC50 in Molar), read-out: LNCaP-AR-F876L ANT pIC50 (converted); for Emax: maximum % inhibition of R1881 control response over the tested concentration range, read-out: LNCaP-AR-F876L ANT MAX % Inh
[4] = target: T2, F876L mutant Androgen Receptor (AR-F876L); test: LNCaP-AR-F876L AG reporter assay (agonist mode); type: cell-based; details: for EC50: agonist mode, pEC50 = −Log10(EC50 in Molar), read-out: LNCaP-AR-F876L AG pEC50 (converted); for Emax: maximum % stimulation (agonist response) over the tested concentration range, read-out: LNCaP-AR-F876L AG MAX % Stim
[5] = target: T1, wild-type Androgen Receptor (AR-wt); test: LNCaP-AR-wt AG reporter assay (agonist mode); type: cell-based; details: for EC50: agonist mode, pEC50 = −Log10(EC50 in Molar), read-out: LNCaP-AR-wt AG pEC50 (converted); for Emax: maximum % stimulation (agonist response) over the tested concentration range, read-out: LNCaP-AR-wt AG MAX % Stim

T1 sequence (P10275 whole entry): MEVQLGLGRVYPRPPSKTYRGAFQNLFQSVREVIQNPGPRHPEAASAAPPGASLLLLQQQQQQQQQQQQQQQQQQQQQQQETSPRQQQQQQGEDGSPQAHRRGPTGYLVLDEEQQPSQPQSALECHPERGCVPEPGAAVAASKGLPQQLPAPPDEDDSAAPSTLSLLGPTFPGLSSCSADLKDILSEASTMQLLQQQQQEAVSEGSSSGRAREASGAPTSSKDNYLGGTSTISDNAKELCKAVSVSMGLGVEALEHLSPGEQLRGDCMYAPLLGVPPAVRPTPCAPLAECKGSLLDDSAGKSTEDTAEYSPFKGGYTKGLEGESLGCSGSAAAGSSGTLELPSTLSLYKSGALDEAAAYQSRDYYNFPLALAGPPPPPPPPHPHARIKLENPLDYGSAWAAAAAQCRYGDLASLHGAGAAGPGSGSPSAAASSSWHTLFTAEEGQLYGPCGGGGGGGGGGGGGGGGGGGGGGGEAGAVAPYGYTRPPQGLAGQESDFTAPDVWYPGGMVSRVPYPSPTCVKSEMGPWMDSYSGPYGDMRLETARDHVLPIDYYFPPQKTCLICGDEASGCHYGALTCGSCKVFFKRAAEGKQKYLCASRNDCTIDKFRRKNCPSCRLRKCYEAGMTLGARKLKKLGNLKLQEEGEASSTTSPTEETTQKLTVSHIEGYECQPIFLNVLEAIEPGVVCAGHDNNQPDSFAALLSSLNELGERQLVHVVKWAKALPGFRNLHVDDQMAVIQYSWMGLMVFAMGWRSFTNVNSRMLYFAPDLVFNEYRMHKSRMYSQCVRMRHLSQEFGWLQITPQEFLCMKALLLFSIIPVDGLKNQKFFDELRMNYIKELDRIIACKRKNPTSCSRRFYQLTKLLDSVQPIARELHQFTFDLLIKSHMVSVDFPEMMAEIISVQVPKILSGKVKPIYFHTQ
T2 sequence (P10275 whole entry F877L): as the sequence (P10275 whole entry) above, with F877L counted along it

| IC50 [1] [µM] | Emax [1] [%] | rGABA-gated Cl− channel % inh @10 μM [2] [%] | IC50 [3] [µM] | Emax [3] [%] | EC50 [4] [µM] | Emax [4] [%] | EC50 [5] [µM] | Emax [5] [%] | SMILES |
| --- | --- | --- | --- | --- | --- | --- | --- | --- | --- |
| 0.00724 | 101 | 67.2 | 0.00851 | 99.3 | > 15.1 | 0.4 | > 15.1 | 0.4 | N#CCN1CCC(Oc2ccc(N3C(=S)N(c4cnc(C#N)c(Cl)c4)C(=O)C34CCC4)cn2)CC1 [Cpd 65, 3-chloro-5-[8-[6-[[1-(cyanomethyl)-4-piperidyl]oxy]-3-pyridyl]-5-oxo-7-thioxo-6,8-diazaspiro[3.4]octan-6-yl]pyridine-2-carbonitrile] |
| 0.049 | 99 | 83.0 | 0.0457 | 95.5 | > 15.1 | 0.9 | > 15.1 | 0.5 | N#Cc1ncc(N2C(=O)C3(CCC3)N(c3ccc(OC4CCN(CC(F)(F)F)CC4)nc3)C2=S)cc1C(F)(F)F [Cpd 66, 5-[5-oxo-7-thioxo-8-[6-[[1-(2,2,2-trifluoroethyl)-4-piperidyl]oxy]-3-pyridyl]-6,8-diazaspiro[3.4]octan-6-yl]-3-(trifluoromethyl)pyridine-2-carbonitrile] |
| 0.0427 | 99.6 | 53.4 | 0.0468 | 97.4 | > 15.1 | 0.7 | > 15.1 | 0.4 | N#Cc1ncc(N2C(=O)C3(CCC3)N(c3ccc(OC4CCN(CCF)CC4)nc3)C2=S)cc1C(F)(F)F [Cpd 67, 5-[8-[6-[[1-(2-fluoroethyl)-4-piperidyl]oxy]-3-pyridyl]-5-oxo-7-thioxo-6,8-diazaspiro[3.4]octan-6-yl]-3-(trifluoromethyl)pyridine-2-carbonitrile] |
| 0.0398 | 101 | 34.9 | 0.0174 | 99.7 | > 15.1 | 0.4 | > 15.1 | 0.6 | N#Cc1ncc(N2C(=O)C3(CCC3)N(c3ccc(OC4CCC(N)CC4)cc3)C2=S)cc1C(F)(F)F (stereo not drawn) [Cpd 68, 5-[8-[4-(4-aminocyclohexoxy)phenyl]-5-oxo-7-thioxo-6,8-diazaspiro[3.4]octan-6-yl]-3-(trifluoromethyl)pyridine-2-carbonitrile] |
| 0.115 | 101 | 77.5 | 0.0692 | 98.9 | > 15.1 | 0.1 | > 15.1 | 0.2 | N#Cc1ncc(N2C(=O)C3(CCC3)N(c3ccc(N4CCOCC4)cc3)C2=S)cc1C(F)(F)F [Cpd 69, 5-[8-(4-Morpholinophenyl)-5-oxo-7-thioxo-6,8-diazaspiro[3.4]octan-6-yl]-3-(trifluoromethyl)pyridine-2-carbonitrile] |
| 0.0339 | 98.8 | 9.2 | 0.0389 | 97.1 | > 15.1 | 3.6 | > 15.1 | 0.8 | COCCN1CCC(Oc2ccc(N3C(=S)N(c4cnc(C#N)c(Cl)c4)C(=O)C34CCC4)cn2)CC1 [Cpd 70, 3-chloro-5-[8-[6-[[1-(2-methoxyethyl)-4-piperidyl]oxy]-3-pyridyl]-5-oxo-7-thioxo-6,8-diazaspiro[3.4]octan-6-yl]pyridine-2-carbonitrile] |
| 0.102 | 101 | 82.1 | 0.178 | 98.3 | > 15.1 | 0.5 | > 15.1 | 0.2 | CC(=O)N1CC(F)(F)CC1COc1ccc(N2C(=S)N(c3cnc(C#N)c(C(F)(F)F)c3)C(=O)C23CCC3)cc1 (stereo not drawn) [Cpd 71, 5-[8-[4-[(1-acetyl-4,4-difluoro-pyrrolidin-2-yl)methoxy]phenyl]-5-oxo-7-thioxo-6,8-diazaspiro[3.4]octan-6-yl]-3-(trifluoromethyl)pyridine-2-carbonitrile] |
| 0.275 | 101 | 20.0 | 0.174 | 100 | > 15.1 | 0 | > 15.1 | -0.1 | CN1CCC(CNC(=O)c2ccc(N3C(=S)N(c4cnc(C#N)c(C(F)(F)F)c4)C(=O)C34CCC4)cc2)CC1 [Cpd 72, 4-[6-[6-cyano-5-(trifluoromethyl)-3-pyridyl]-5-oxo-7-thioxo-6,8-diazaspiro[3.4]octan-8-yl]-N-[(1-methyl-4-piperidyl)methyl]benzamide] |
| 0.501 | 101 | 80.1 | 0.224 | 97.6 | > 15.1 | 0.5 | > 15.1 | 1 | CNC(=O)N1CCC(CNC(=O)c2ccc(N3C(=S)N(c4cnc(C#N)c(C(F)(F)F)c4)C(=O)C34CCC4)cc2)CC1 [Cpd 73, 4-[[[4-[6-[6-cyano-5-(trifluoromethyl)-3-pyridyl]-5-oxo-7-thioxo-6,8-diazaspiro[3.4]octan-8-yl]benzoyl]amino]methyl]-N-methyl-piperidine-1-carboxamide] |
| 0.0724 | 100 | 13.9 | 0.0214 | 98.1 | > 15.1 | 1.5 | > 15.1 | 0.2 | N#Cc1ncc(N2C(=O)C3(CCC3)N(c3ccc(OCC4CNCCO4)cc3)C2=S)cc1C(F)(F)F (stereo not drawn) [Cpd 74, 5-[8-[4-(morpholin-2-ylmethoxy)phenyl]-5-oxo-7-thioxo-6,8-diazaspiro[3.4]octan-6-yl]-3-(trifluoromethyl)pyridine-2-carbonitrile] |
| 0.148 | 102 | −32.5 | 0.0891 | 101 | > 15.1 | 0.1 | > 15.1 | 0.2 | COc1cc(N2C(=O)C3(CCC3)N(c3ccc(OC4CCNCC4)nc3)C2=S)cnc1C#N [Cpd 75, 3-methoxy-5-[5-oxo-8-[6-(4-piperidyloxy)-3-pyridyl]-7-thioxo-6,8-diazaspiro[3.4]octan-6-yl]pyridine-2-carbonitrile] |
| 0.0372 | 102 | 53.8 | 0.0309 | 100 | > 15.1 | 0.3 | > 15.1 | 0.2 | N#Cc1ncc(N2C(=O)C3(CCC3)N(c3ccc(OC4CCN(CCF)CC4)cc3)C2=S)cc1C(F)(F)F [Cpd 77, 5-[8-[4-[[1-(2-fluoroethyl)-4-piperidyl]oxy]phenyl]-5-oxo-7-thioxo-6,8-diazaspiro[3.4]octan-6-yl]-3-(trifluoromethyl)pyridine-2-carbonitrile] |
| 0.0933 | 101 | 3.8 | 0.0229 | 100 | > 15.1 | 0 | > 15.1 | 1.2 | Cc1cc(N2C(=O)C3(CCC3)N(c3ccc(OC4CCN(CCF)CC4)nc3)C2=S)cnc1C#N [Cpd 78, 5-[8-[6-[[1-(2-fluoroethyl)-4-piperidyl]oxy]-3-pyridyl]-5-oxo-7-thioxo-6,8-diazaspiro[3.4]octan-6-yl]-3-methyl-pyridine-2-carbonitrile] |
| 0.00676 | 101 | 11.5 | 0.00813 | 98.5 | > 15.1 | 1.3 | > 15.1 | 1.2 | N#Cc1ncc(N2C(=O)C3(CCC3)N(c3ccc(OC4CCN(CCO)CC4)nc3)C2=S)cc1Cl [Cpd 79, 3-chloro-5-[8-[6-[[1-(2-hydroxyethyl)-4-piperidyl]oxy]-3-pyridyl]-5-oxo-7-thioxo-6,8-diazaspiro[3.4]octan-6-yl]pyridine-2-carbonitrile] |

| SMILES | IC50 [1] [µM] | Emax [1] [%] | rGABA-gated Cl− channel % inh @10 μM [2] [%] | IC50 [3] [µM] | Emax [3] [%] | EC50 [4] [µM] | Emax [4] [%] | EC50 [5] [µM] | Emax [5] [%] |
| --- | --- | --- | --- | --- | --- | --- | --- | --- | --- |
| N#Cc1ncc(N2C(=O)C3(CCC3)N(c3ccc(N4CCN(C(=O)N5CCCC5)CC4)cc3)C2=S)cc1C(F)(F)F [Cpd 76, 5-(8-oxo-5-(4-(4-(pyrrolidine-1-carbonyl)piperazin-1-yl)phenyl)-6-thioxo-5,7-diazaspiro[3.4]octan-7-yl)-3-(trifluoromethyl)picolinonitrile] | 0.0933 | 102 | 85.4 | 0.141 | 97.5 | > 15.1 | 2.2 | > 15.1 | 0.6 |
